Experimental data reported in US12145943B2, “Solid forms of 3-(5-Fluorobenzofuran-3-yl)-4-(5-methyl-5H-[1,3]dioxolo[4,5-f]indol-7-yl)pyrrole-2,5-dione” (Actuate Therapeutics Inc., priority 2017, dated 2024).
Converted amounts (≈) assume the structure as drawn.

Legend:
Assay type in all cases: physicochemical
[1] = Solubility in 30% acetonitrile in water (HPLC of filtrate, XRPD of remaining solids)
Procedure: The solubility of 9-ING-41 polymorphic forms in 30% Acetonitrile in water was determined using HPLC under the following conditions: • Instrument: Agilent 1260 Infinity Series • Diluent: 30% acetonitrile aqueous solution • Flow rate: 1.5 mL/min • Mobile phase: A: 0.05% TFA in water • B: 0.05% TFA in acetonitrile • Injection volume: […] • Column: XDB-C18, 4.6*50 mm, 1.8 μm • Column Temperature: 40° C. • Detection: 220 nm • Run Time: 8 minutes (2 minutes delay for next injection) • Gradient (T/B %): 0.0/70, 6.0/100, 8.0/100
About 5 mg of 9-ING-41 Form I was added into 2 mL of 30% acetonitrile/70% water (vol/vol). The sample was shaken at 200 rpm in a shaker for 24 h. The vial was visually examined to ensure saturation. 1 mL of the suspension was filtered through a 0.22 µm nylon syringe filter into another clean clear glass vial at 2 hours and at 24 hours. The filtrates were analyzed using HPLC (accurately dilute if necessary) and the remaining solids were analyzed using XRPD.

[2] = Dynamic vapor sorption (DVS) analysis; conditions: 80% relative humidity, 25.0±1.0° C.
Procedure: DVS analyses were conducted on an IGAsorp (HidenIsochema Ltd.). For an isotherm test, the chamber temperature was maintained by a water bath at constant 25.0±1.0° C.

[3] = Mechanical and pressure effects on crystalline form (XRPD)
Procedure: XRPD analyses were performed using an X-ray diffractometer (Bruker D8 advance) equipped with LynxEye detector. The instrument parameters were listed below. • Scan: 3° (2θ) to 40° (2θ) • Increment: 0.02° (2θ) • Scan speed: 0.3 sec/step • Voltage: 40 KV • Current: 40 mA • Rotation: On • Sample hold: Zero-background sample holder TGA Analysis 9.90 mg of 9-ING-41 Form I was weighed into mortar and ground for 5 min. […] 9-ING-41 Form I was pressed into two tablets. The weight of tablets was 38.9 mg and 36.2 mg, respectively.

[4] = Aqueous solubility study (water or buffers, HPLC of filtrate, XRPD of remaining solids); conditions: for solubility: shaken 200 rpm 24 h
Procedure: The solubility of 9-ING-41 polymorphic forms in water or buffers were determined using HPLC under the following conditions: • Instrument: Agilent 1260 Infinity Series • Diluent: Acetonitrile • Flow rate: 1.5 mL/min • Mobile phase: A: 0.05% TFA in water • B: 0.05% TFA in Acetonitrile • Injection volume: 1 μL • Column: XDB-C18, 4.6*50 mm, 1.8 μm • Column Temperature: 40° C. • Detection: 220 nm • Run Time: 8 minutes (2 minutes delay for next injection) • Gradient (T/B %): 0.0/70, 6.0/100, 8.0/100 10-30 mg of 9-ING-41 Form I was added to 2 mL of water or a buffer solution buffered at pH=1.2, 4.5, or 6.8. The samples were shaken at 200 rpm in a shaker for 24 h. The sample vials were visually examined to ensure saturation. 1 mL of each suspension was filtered at 24 hours through a 0.22 µm nylon syringe filter into another clean clear glass vial. The filtrate was analyzed using HPLC (accurately dilute if necessary) and the remaining solids were analyzed using XRPD.

| solubility at 30 min ([1]; aqueous with cosolvent or surfactant or cyclodextrin, thermodynamic from solid, 30% acetonitrile/70% water (vol/vol), after 30 minutes) | weight gain (DVS) [2] | crystalline form after grinding (XRPD) ([3]; ground in mortar for 5 min) | crystalline form after pressing into tablets (XRPD) ([3]; pressed into tablets, then ground into powder) | crystalline form of remaining solids (XRPD) ([1]; after shaking in 30% acetonitrile/70% water) | solubility at 24 h ([1]; aqueous with cosolvent or surfactant or cyclodextrin, thermodynamic from solid, 30% acetonitrile/70% water (vol/vol), after 24 hours, read-out: 9-ING-41 in filtrate (solubility) by HPLC) | solubility at 2 h ([1]; aqueous with cosolvent or surfactant or cyclodextrin, thermodynamic from solid, 30% acetonitrile/70% water (vol/vol), after two hours, read-out: 9-ING-41 in filtrate (solubility) by HPLC) | crystalline form of remaining solids (XRPD) ([4]; after 24 h in water or pH 1.2, 4.5, 6.8 buffer) | solubility ([4]; pH 1.2 buffer) | solubility ([4]; pH 4.5 buffer) | solubility ([4]; pH 6.8 buffer) | 9-ING-41 in the filtrates by HPLC ([4]; water or pH 1.2, 4.5, 6.8 buffer, filtrate at 24 hours) | solubility ([4]; water) | SMILES |
| --- | --- | --- | --- | --- | --- | --- | --- | --- | --- | --- | --- | --- | --- |
| 57 µg/mL (≈ 141 µM) | – | – | – | – | – | – | – | – | – | – | – | – | Cn1cc(C2=C(c3coc4ccc(F)cc34)C(=O)NC2=O)c2cc3c(cc21)OCO3 [Amorphous 9-ING-41, 3-(5-fluorobenzofuran-3-yl)-4-(5-methyl-5H-[1,3]dioxolo[4,5-f]indol-7-yl)pyrrole-2,5-dione] |
| – | about 0.23 % by weight | had not changed | had not changed | no change in crystalline form | 48 µg/mL (≈ 119 µM) | 46 µg/mL (≈ 114 µM) | no change in crystalline form | poor | poor | poor | could not be detected | poor | Cn1cc(C2=C(c3coc4ccc(F)cc34)C(=O)NC2=O)c2cc3c(cc21)OCO3 [9-ING-41 Form I, 3-(5-fluoro-1-benzofuran-3-yl)-4-[5-methyl-2H,5H-[1,3]dioxolo[4,5-f]indol-7-yl]-2,5-dihydro-1H-pyrrole-2,5-dione] |
